Our source for the melting point values is a melting point compilation (Tetko et al.; mined from patent text by program, amines drawn as free bases though some values may be those of a salt).

Consider `Cc1ccc(S(=O)(=O)N(CCN(CC(=O)Cl)S(=O)(=O)c2ccc(C)cc2)CCN(CC(=O)Cl)S(=O)(=O)c2ccc(C)cc2)cc1`, for which the melting point (usually the temperature of the solid-liquid transition) is 136 to 137 °C.
Turning to `COc1cccc(-c2ccc3c(C(=O)Nc4onc(C)c4C)c(OC)ccc3c2)c1`, the melting point was determined as 124 °C.
The compound `COc1cc(C=CN(C)C)c([N+](=O)[O-])cc1OC` gave a melting point of 125 to 126 °C.
With `C#CC1(OCc2ccccc2F)CCN(C(C)=O)CC1` the figure was 59 to 62 °C.
The compound `NC(=O)N(O)Cc1cccc(C(O)C#Cc2ccsc2)c1` (centres undefined) returned a melting point of 151 °C.
With `NC(=O)CNC(=O)c1cccc(-c2cc(F)cc3cc(Cc4cccc(C(F)(F)F)c4)sc23)c1` the figure was 71 to 73 °C; with `N#Cc1cccc(COc2ncc(F)c(NC(=O)NCc3ccccc3F)n2)c1`, 177 to 178 °C; with `Cc1cc(N=Nc2ccccn2)ccc1-c1ccc(-c2ccc(N=Nc3ccccn3)cc2C)s1`, 152 to 153 °C.
`O=C(Cn1cc(Cl)cnc1=O)c1ccc([N+](=O)[O-])cc1` showed a melting point of 232 to 236 °C.
As for `COC(=O)c1ccccc1C=Nc1cc(C)ccc1O`, the melting point lay in the range of 82 to 83 °C.
For `O=C(O)c1cc(=O)c2c(I)cc(Cl)cc2[nH]1`, the melting point amounted to 298 °C.
In the case of `CC(C)(C)c1cc(SCC(=O)N2CCN(c3ccc(NC(=N)c4cccs4)cc3)CC2)cc(C(C)(C)C)c1O` it was 67 to 69 °C; in that of `C=C(C)Cc1c(O)c2c(c3c1CC(C)(C)N=C3c1ccccc1)CC(C)(C)O2`, 196 to 198 °C; in that of `NC(=S)c1cc(F)c2ncc(C(=O)NCc3ccc(Cl)cc3)c(O)c2c1`, 247 to 248 °C.
`OCCn1cc(Br)c(Br)n1` came in with a melting point of 64 to 66 °C.
In turn, `C=CCOCC1CC(N)c2cc(S(N)(=O)=O)sc2S1(=O)=O` (centres undefined) displayed a melting point of 167 to 168 °C.
As for `COc1ccc(CC2CCCN(c3nc(C)c(C(=O)NCc4ccccc4)s3)C2=O)cc1` (centres undefined), the melting point fell in the range of 116 to 118 °C.
The compound `Cc1nc(-n2cc(C(=O)NCc3ccc(F)cc3)nn2)sc1C(=O)NCc1ccccc1` registered a melting point of 198 to 201 °C.
In the case of `COC(=O)C(C)(C)OCc1cc2cc(Cl)ccc2n1S(=O)(=O)c1ccc(OC)cc1` it was 96 to 98 °C; in that of `Cc1cc(C)n(Cc2ccc(OCc3nc(-c4ccccc4)oc3C)cc2)n1`, 86 to 87 °C; in that of `CC(=O)c1nc2ccc(Cl)cc2cc1OCc1ccccc1`, 107 to 110 °C.
For `CCCCc1nc2cccc(C(=O)OC)c2n1Cc1ccc(-c2ccccc2N)cc1`, the melting point lay in the range of 97 to 99 °C.
In turn, `CCOCc1c[nH]c(=O)c(N)c1Sc1cc(C)cc(C)c1` gave a melting point of 149 to 150 °C.
As for `O=C1c2ccccc2C(O)N1CCCN1CCN(c2ccc(O)cc2)CC1` (centres undefined), the melting point was determined as 190 °C.
In turn, `COc1ccc(-c2nc(Sc3ccccn3)[nH]c2-c2ccc(OC)cc2)cc1` gave a melting point of 94 °C.
`CN(Cc1cccc(-c2ccc(CC3SC(=O)NC3=O)cc2)c1)C(=O)Cc1ccccc1` (centres undefined) came in with a melting point of 73 °C.
In the case of `Cc1oc(-c2ccccc2)nc1COc1ccc(CCCCCC2OC(=O)NC2=O)cc1` (centres undefined), the melting point is 120 to 121 °C.
With `CCOC(=O)c1cn(CC)c2cc(OS(=O)(=O)C(F)(F)F)c(F)cc2c1=O` the figure was 83 to 85 °C; with `CC1CN2N=C(c3cccc(C(F)(F)F)c3)C=CC2=N1` (centres undefined), 86 to 90 °C; with `CNC(=NCCCCc1nccs1)NC#N`, 87 to 89.5 °C.
With `O=C(O)c1cn(C2COC2)c2c(F)c(N3CCNCC3)cc(F)c2c1=O` the figure was more than 300 °C; with `COc1ccc(CO)nc1I`, 106 to 108 °C; with `Cc1c(C(=O)O)cn(-c2ccnc3ccccc23)c1C`, 238 °C.
Take `COc1ccc(CCNc2nc(Cl)ccc2[N+](=O)[O-])cc1OC`: the melting point lay within 132 to 133 °C.
In the case of `CC(=O)CS(=O)(=O)NC1(c2ccc(OCc3ccc4ccccc4n3)cc2)CCCCCC1`, the melting point is 174 to 176 °C.
In turn, `COC(=O)COc1ccc(C(C)=O)c(OCCCBr)c1` yielded a melting point of 67 to 70 °C.
On to `O=C(Nc1ccc(F)c([N+](=O)[O-])c1)c1ccc(Cl)c(Cl)c1`, for which the melting point lay within 202 to 204 °C.
Take `CC(C)(C)OC(=O)N1CCC(c2ccc(COc3ccc(-n4cncn4)cc3)nc2)CC1`: the melting point lay within 147 to 150 °C.
For `CN(C)c1cc(-c2nnn(Cc3ccc(C(=O)O)cc3)n2)ccc1OC(=O)C(C)(C)C`, the melting point fell in the range of 177 to 178 °C.
`CC(C)(C)OC(=O)N1CCC(CCN2C(=O)c3ccccc3C2=O)CC1` registered a melting point of 112 to 114 °C.
`O=C(NC(C(=O)NC(CO)COCc1ccccc1)C(Cc1ccccc1)C(=O)O)OCc1ccccc1` (centres undefined) registered a melting point of 100 to 103 °C.
Take `CC1=C(C(O)c2ccc3c(c2)CN(C(N)=O)CC3)C(C)(C)CCC1` (centres undefined): the melting point is 88.2 to 89.5 °C.
Take `C=CCN(CC=C)C(=O)n1cnc(S(=O)(=O)CCC)n1`: the melting point was in the range of 41 to 42 °C.
Compound `CCCc1nc(Cl)cc(NC)n1` had a melting point of 30 to 40 °C.
Turning to `O=C(Nc1cccc(F)n1)Nc1cccc2c1C1CCCCN1C2=O` (centres undefined), the melting point was determined as 254 °C.
For `Cc1ccc(-c2c(C(=O)Nc3nccs3)nc(-c3cccc4ccccc34)n2C)cc1`, the melting point lay within 251 to 252 °C.
With `O=S(=O)(c1ccc(Cl)cc1)C(c1cccnc1)c1cc(F)ccc1F` (centres undefined) the figure was 130 to 131 °C.
`COc1ccc(C(C#N)CNC(N)=O)cc1OC1CCCC1` (centres undefined) returned a melting point of 55 to 61 °C.
The compound `O=C1c2cccc([N+](=O)[O-])c2C2CC3(CCN12)OCCO3` (centres undefined) displayed a melting point of 206 °C.
Compound `CC(=O)NC[C@H]1OC(=O)N2c3ccc(C(=O)CCl)cc3C[C@H]12` gave a melting point of 172 to 174 °C.
Consider `C=CCOC(=O)C1=C2[C@@H](OC)CCC[C@@H]2[C@@H]2[C@@H]([C@H](O)C(F)(F)F)C(=O)N12`, for which the melting point was 78 to 85 °C.
`COC(=O)C1C(c2ccccc2)OC(=O)N1C(c1ccccc1)c1ccccc1` (centres undefined) had a melting point of 99 to 102 °C.
With `COc1ncc(OC)c(Cl)n1` the figure was 78 to 80 °C; with `CCCc1c(OCCCCCCc2cccc(OC)c2OC)ccc(C(=O)O)c1O`, 115 to 118 °C; with `CNC(=O)c1cccc(NC(=O)Cc2cc(OC)c(OC)c(OC)c2)c1`, 81 to 82 °C.
With `CN=C(NC#N)S(C)=O` (centres undefined) the figure was 116 °C.
With `Cc1noc(NS(=O)(=O)c2cc(Br)c(Br)s2)c1Br` the figure was 153 to 155 °C; with `COc1ccccc1-c1ccc(C[C@H](NC(=O)c2c(Cl)cccc2Cl)C(=O)O)cc1Cl`, 131 °C.
Consider `O=C(O)C1=Cc2cc(Cl)c(S(=O)c3ccc(Cl)cc3)cc2OC1C(F)(F)F` (centres undefined), for which the melting point was 214 to 217 °C.
With `CCOc1nn(Cc2ccc(OCc3cncc(-c4ccccc4)c3)cc2)cc1CCC(=O)O` the figure was 92 to 93 °C; with `CCCCCCCCc1sc(NC(=O)c2cc3ccccc3n2CCC(=O)OCC)nc1-c1cc(OC)c(Cl)cc1OC`, 59 to 61 °C; with `COc1cc(C)c(C(=O)O)c(OC)c1OC`, 95 to 97 °C.
In the case of `CCOC(=O)c1cccc(NC(=O)NCC(=O)N2[C@@H](C(=O)OCC)CC[C@H]2c2ccccc2)c1` (racemic), the melting point came out at 136 °C.
`N#Cc1nc(Cl)c(Cl)[nH]1` had a melting point of 187 to 189 °C.
With `CCOC(=O)c1cnc(Nc2cccc([N+](=O)[O-])c2)[nH]c1=O` the figure was 226 to 228 °C; with `O=C1c2ccccc2C(=O)c2sc(-c3cccnc3)nc21`, 256 °C; with `O=C1c2cccc(Cl)c2C(O)N1c1ccc2ccc(Cl)nc2n1` (centres undefined), 270 °C.
In turn, `O=S1(=O)Cc2cc(Cl)ccc2Oc2ccccc21` returned a melting point of 159 to 166 °C.
On to `CC(C)(C)OCC1CNC(=O)O1` (centres undefined), for which the melting point lay in the range of 57 to 65 °C.
Take `COc1cccc2c(=O)c(SC)coc12`: the melting point was in the range of 113 to 115 °C.
`CNC(=O)c1c(-c2ccccn2)c2ccccc2n(C)c1=O` yielded a melting point of 239 to 240 °C.
In the case of `FCC=Cc1ncn(C(c2ccccc2)(c2ccccc2)c2ccccc2)n1` it was 149 °C; in that of `Cc1c(CCl)nc2c(NC(=O)C(C)(C)C)cccn12`, 168 °C; in that of `CCOC(=O)NC(CCc1ccccc1)P(C)(=O)O` (centres undefined), 119 to 125 °C.
The compound `Cc1ccccc1N1CCN(Cc2ccc(Nc3ccnc4cc(C(F)(F)F)ccc34)cc2)CC1` came in with a melting point of 208 to 210 °C.
In the case of `Cc1c(C)c2c(c(C)c1OCc1ccccn1)C(c1ccc(C(C)C)cc1)C(C)(C)O2` (centres undefined) it was 88 to 89 °C; in that of `CCC(CO)Nc1nc(NCc2cccc(OC)c2O)c2ncn(C(C)C)c2n1` (racemic), 120 to 122 °C.
Compound `CCCCCCOC(=O)Oc1ccc2c(N3CCN(CCCC(=O)c4ccc(F)cc4)CC3)noc2c1` yielded a melting point of 77 to 80 °C.
Take `Cc1csc(C(=O)N2CCCC2)c1-n1cccc1`: the melting point was 178 °C.
`CC(C(=O)O)c1ccc(Oc2ccc(F)cc2F)cc1` (centres undefined): the melting point fell in the range of 105 to 106 °C.
Compound `O=c1ccc2c(=O)c3ccccc3ccc2[nH]1` gave a melting point of 320 °C.
With `CC(C)(C)OC(=O)C[C@H](O)CC#N` the figure was 63 to 64 °C; with `COc1ccc(NC(=S)NC(=O)c2ccccc2)cc1COc1cc(Cl)cc(Cl)c1`, 167 to 169 °C.
Regarding `O=P(Cc1ccc2ccccc2c1-c1c(CP(=O)(c2cccc(F)c2)c2cccc(F)c2)ccc2ccccc12)(c1cccc(F)c1)c1cccc(F)c1`, the melting point fell in the range of 280 to 284 °C.
In turn, `CN(C)C=Nc1ccncc1O` displayed a melting point of 121 to 123 °C.
On to `Nc1sc2c(c1C(=O)c1ccc(Br)c3ccccc13)CCCC2`, for which the melting point was 176 to 178 °C.
Regarding `O=C(Nc1ccc(N2CCSC2)c(F)c1)OCc1ccccc1`, the melting point lay within 90 to 92 °C.
With `Cc1ccc2c(c1)Cn1ccnc1N2`, the melting point was 265 °C.
Compound `CCOC(=O)c1cc(=O)c2cc(O)c(=O)ccc2[nH]1` came in with a melting point of 169 to 172 °C.
